Results taken from patent US12310946B2, “Pharmaceutical composition for oral administration of edaravone and method of administering same” (MITSUBISHI TANABE PHARMA CORPORATION, priority 2020, dated 2025).

Experiments:
[1] = Clinical study #5: PK of edaravone oral formulation (formula #3) in ALS patients, oral, fasted; format: in vivo, human; conditions: for difference in the AUC between the patient group and the reference group / difference in the Cmax between the patient group and the reference group: ALS patients oral vs healthy oral; for Cmax: po, 105 mg
Protocol: To evaluate the pharmacokinetics of edaravone in ALS patients, a clinical study #5 shown below was conducted in ALS patients who can live daily life independently (the patient group).
The edaravone oral formulation was administered orally to the patient group in fasted conditions after a lapse of 10 hours or longer from consumption of a meal. In the patient group, ALS patients who had been already administered with an edaravone intravenous infusion formulation were orally administered with the edaravone oral formulation after a lapse of 48 hours or longer from the time of completion of the previous administration of the intravenous infusion formulation. The same edaravone oral formulation as the formula #3 in Table 1 above was used. Then, blood samples were each collected before the administration, and 5 minutes, 15 minutes, 30 minutes, 45 minutes, 1 hour, 1.5 hours, 2 hours, 4 hours, 6 hours, 8 hours, 10 hours, 12 hours, and 24 hours after the administration, and the concentrations of unchanged edaravone in plasma were measured.
(§1) The resulting PK parameters were corrected for body weight of each subject adjusted to 70 kg by a proportional calculation for each of the patient group and the reference group. In addition, the results of the PK parameters after correction of the patient group are shown as box-whisker plots of #9 (the reference group), and individual plots of #5 (the patient group) and #9 (the reference group) in FIG. 3. In FIG. 3, X represents a mean value. […] Thus, the difference in the Cmax and the difference in the AUC before weight correction between the patient group and the reference group seen in Table 9 below are considered due to the difference in body weight between the patient group and the reference group, and the difference in the Cmax and the difference in the AUC after weight correction between the patient group and the reference group observed in FIG. 3 are each considered to be within the range of error.

[2] = Clinical study #9: PK of edaravone oral formulation (formula #3) in healthy adults (reference group), oral, fasted; format: in vivo; conditions: both sexes, human, plasma, 105 mg oral, healthy (n = 42), mean, before weight correction
Protocol: On the other hand, a clinical study #9 shown below was conducted in healthy adult male and female subjects (42 in total) (the reference group). That is, the edaravone oral formulation of the formula #3 was administered orally to the reference group in fasted conditions after a lapse of 10 hours or longer. Then, blood samples were each collected before the administration, and 5 minutes, 15 minutes, 30 minutes, 45 minutes, 1 hour, 1.5 hours, 2 hours, 4 hours, 6 hours, 8 hours, 10 hours, 12 hours, 24 hours, 36 hours, and 48 hours after the administration, and the concentrations of unchanged edaravone in plasma were measured.
as §1

[3] = Clinical study #1: PK of edaravone oral formulation (formula #1), fasted vs 30 min after high-fat meal; format: in vivo; conditions: male, human, plasma, 200 mg, 200 mg oral
Protocol: Effects of meal consumption before administration of the edaravone oral formulation on the pharmacokinetics of edaravone were evaluated. Specifically, clinical studies #1, #2, and #3 described below were conducted on separate days in Japanese healthy adult male subjects. In each of clinical studies #1, #2, and #3, one dose each of edaravone oral formulations (edaravone suspensions) of formulas #1, #2, and #3 shown in Table 1 below were used respectively and administered orally once during the study period. For each clinical study, a reference study was conducted (reference example), in which the edaravone oral formulation was administered in fasted conditions as described below, and in each clinical study and the corresponding reference study, the edaravone oral formulation was each administered to the same subjects.
For the high-fat meal, a meal with total calories per meal of 800 to 1000 kilocalories and calorie intake from lipid of 50% was used. For the standard meal, a meal with total calories per meal of 400 to 500 kilocalories and calorie intake from lipid of 25% was used. For the light meal, a liquid-type nutritional supplement with total calories per meal of 250 kilocalories (enteral nutritional supplement: Ensure Liquid (trade name)) was used.
The edaravone oral formulation (formula #1) was administered orally to the subjects 30 minutes after high-fat meal consumption. Blood samples were each collected before the administration, and 15 minutes, 30 minutes, 1 hour, 1.5 hours, 2 hours, 4 hours, 6 hours, 8 hours, 12 hours, 24 hours, 36 hours, and 48 hours after the administration, and the concentrations of unchanged edaravone in plasma were measured. On the other hand, as a reference example, the edaravone oral formulation was administered orally to the same subjects in fasted conditions, blood samples were collected, and the concentrations of unchanged edaravone in plasma were measured in the same manner. For the administration in fasted conditions, the edaravone oral formulation was administered orally after a lapse of 10 hours or more from the previous meal consumption (the same applies hereinafter). None of the subjects consumed a next meal until the blood sample collection 4 hours after the administration was completed.

[4] = Solubility of edaravone in water and BCS classification; format: physicochemical
Protocol: Since 1 g of edaravone requires 500 mL of water to dissolve, 105 mg of edaravone is calculated to require 52.5 mL of water. […] Thus, edaravone is regarded as a BCS Class 1 drug with high solubility and high permeability. These findings led to a brief that edaravone is a compound whose pharmacokinetics are not affected by meal consumption. […] Not only the presence or absence of a meal but also the types of meal cause differences in effects on the pharmacokinetics of edaravone, and suitable administration timing depends on each type of meal.

[5] = after weight correction (70 kg)
[6] = human, plasma, 105 mg oral, fasted, ALS patients (n = 9), mean, before weight correction
[7] = formula #1, 30 min after high-fat meal, mean (n = 5)
[8] = formula #1, fasted, mean (n = 6)

## CC1=NN(c2ccccc2)C(=O)C1 [Edaravone, 3-methyl-1-phenyl-2-pyrazolin-5-one]
[1]; [5]
  difference in the AUC between the patient group and the reference group: 5.8%
  difference in the Cmax between the patient group and the reference group: 9.8%
[1]; before weight correction
  difference in the AUC between the patient group and the reference group: 1.5%
  difference in the Cmax between the patient group and the reference group: 15%
[1]; human, plasma, 105 mg oral, ALS patients, corrected to 70 kg, read-out: Cmax after weight correction, mean value±standard error
  Cmax: 1610 ± 231 ng/mL
[1]; human, plasma, 105 mg oral, fasted, ALS patients (n = 9), mean, before weight correction, read-out: Cmax
  Cmax: 1900 ng/mL
[1]; human, plasma, 105 mg oral, ALS patients, corrected to 70 kg, read-out: AUC after weight correction, mean value±standard error
  AUC: 1460 ± 166 ng·h/mL
[1]; [6]
  AUC(0-inf): 1740 ng·h/mL
  Tmax: 18.6 min
[2]
  AUC(0-inf): 1760 ng·h/mL
  Cmax: 1660 ng/mL
  Tmax: 26.4 min
[3]; [7]
  AUC(0-inf): 2470 ng·h/mL
  Cmax: 899 ng/mL
  Tmax: 81 min
  half-life: 314 min
[3]; [8]
  AUC(0-inf): 6310 ng·h/mL
  Cmax: 4930 ng/mL
  Tmax: 25.2 min
  half-life: 543 min
[4]; 105 mg of edaravone, calculated
  water required to dissolve 105 mg of edaravone: 52.5 mL
[4]; 1 g of edaravone
  water required to dissolve 1 g of edaravone: 500 mL
[4]; Biopharmaceutics Classification System
  solubility classification: high solubility compound
[4]; for example, water, read-out: saturation solubility of edaravone with respect to a dispersion medium
  solubility: ≤ 2000 µg/mL
[4]; solubility and Caco-2 permeability
  BCS class: BCS Class 1
